# Measurements: patent US20080227799A1, “CXCR4 Antagonists Including Heteroatoms for the Treatment of Medical Disorders” (priority 2006, published 2008)
# Entries after “also recorded” stand apart in the source; their conditions may differ.
# Columns and labels:
# [1] = withdrawn from clinical trials; cited from earlier work
# [2] = test system: CXCR4/SDF-1-mediated Akt activation; test: SDF-1-stimulated Akt phosphorylation in MDA-MB-231 cells (western blot); format: cell-based; settings: for concentration blocking Akt activation: 100 ng/ml SDF-1, 30 minutes, 0-1000 nM tested; for SDF-1-stimulated phosphorylation of Akt: MDA-MB-231 cells, 100 ng/ml SDF-1, 30 min, dose-dependent
# Protocol: (§1) CXCR4/SDF-1 interaction activates PI3K/Akt and Ras/Raf/MEK/Erk pathways in a Gαi protein (PTX-sensitive)-dependent manner. Experiments were conducted to determine the effect of blocking CXCR4/SDF-1 interaction by either TN14003 or AMD3100 at different concentrations (0, 0.01, 0.1, 1, 10, 100, 1000 nM) on phosphorylations of Akt and Erk1/2 signaling. Incubating cells with 100 ng/ml of SDF-1 for 30 minutes activated Akt. […] However, the increase in Erk1/2 phosphorylation by SDF-1 was not significant as the increase in Akt phosphorylation.
# CXCR4 [3] = molecular target: T1, CXCR4 (Homo sapiens, UniProt P61073); test: Competition assay using biotin-labeled TN14003 and streptavidin-conjugated rhodamine on tumor cells; format: binding
# T1 construct: endogenous in cells; probably MDA-MB-231
# Source text: In a separate embodiment, a process for screening potential drug candidates is provided. The process includes providing a labeled peptide-based CXCR4 antagonist that has a detectable signal when bound to a CXCR4 receptor; contacting a CXCR4 receptor with at least one test molecule at a known concentration to form a test sample; contacting the test sample with the peptide-based antagonist; separately, contacting the peptide-based antagonist to a sample not including any test molecule to form a control sample; and comparing the signal from the test sample to the signal from the control sample. In a specific subembodiment, the peptide-based antagonist is derived from TN14003 (described in PCT Publication No. WO 04/087068 to Emory University). In a further subembodiment, the antagonist is labeled with a biotin molecule and the signal is elicited when the biotin-labeled antagonist is contacted with a streptavadin-conjugated signal molecule.
# The peptide-based antagonist is typically a molecule with high affinity for the receptor. In one embodiment, the molecule is derived from the “T140” peptide antagonists. In a specific embodiment, the antagonist is TN14003 (described in PCT Publication No. WO 04/087068 to Emory University). The receptor is typically expressed in a cell line. The process can be performed as a dose-response curve. In this embodiment, the test compound is incubated with the receptor at varying concentrations and the signal elicited after binding of the labeled antagonist is measured and compared to control, as well as to each other.
# Using biotin-labeled TN14003 along with streptavidin-conjugated rhodamine allowed a determination of the binding efficiency of these chemicals to the SDF-1 binding site of CXCR4 on tumor cells and compared it to AMD3100-SDF-1 interactions (FIG. 7). […] Cells were pre-incubated with different concentrations of AMD3100. […] Therefore, one of these compounds, WZZL811S, was selected to study its therapeutic potential based on potency and low toxicity to cells (FIG. 9).
# CXCR4 [4] = test: CXCR4 protein levels after treating cells; format: cell-based; settings: treated cells
# [5] = test system: CXCR4/SDF-1-mediated Erk1/2 phosphorylation; test: SDF-1-stimulated Erk1/2 phosphorylation; format: cell-based; settings: data not shown
# Protocol: as §1
# SHIV = SHIV infection of model cells, p27 antigen capture; format: cell-based; settings: 0.1, 1, 10 or 100 nM drug prior to infection
# Protocol: The effect of the test compounds on HIV infection in model cells was analyzed by p27 antigen capture using SHIV infected cells. Cells were incubated with 0, 0.1, 1, 10 or 100 nM drug prior to infection with SHIV. Viral titer was measured after infection by analyzing levels of p27 antigen. […] The inhibition was measurable at 2 days, and continued to 5 day incubations.
# metastatic 686LN cells = test: 686LN head & neck cancer metastasis model, tail vein injection, FDG-PET; format: in vivo; settings: 20 mg/mouse/twice weekly; thirty days
# Protocol: The metastatic 686LN cells were injected intravenously through the tail vein to generate experimental animal models for Head & Neck cancer metastasis, modulated via CXCR4. […] These 3-D projection images show lung metastases well (bone mets and liver mets were apparent in axial section images of mice in control groups, data not shown).
# [6] = test system: human umbilical vein endothelial cells (HUVECs); test: Endothelial capillary tube formation assay; format: cell-based; settings: 100 nM; SDF-1 100 ng/ml; 18 hours
# Protocol: The anti-angiogenic effect of test compounds was measured by analyzing endothelial cell growth and tube formation. The angiogenic effect of SDF-1 (100 ng/ml) on capillary formation by human umbilical vein endothelial cells (HUVECs) was examined in vitro using Matrigel-coated 24-well plates precoated with Matrigel and incubated for 18 hours. The angiogenic effect of SDF-1 was inhibited by either 100 nM TN14003 (peptide-based CXCR4 antagonist) or WZZL811S treatment (FIG. 14a, graph FIG. 14b).
# MDA-MB-231 cells [7] = test: Cell viability of MDA-MB-231 cells; format: cell-based; settings: 100 μM (the highest concentration tested)
# MDA-MB-231 cells [8] = test: Matrigel invasion assay, CXCR4/SDF-1-mediated invasion; format: cell-based; settings: 2 nM
# Protocol: Lowering CXCR4 mRNA levels by siRNAs inhibited CXCR4/SDF-1-mediated invasion as measured by a matrigel invasion assay. The CXCR4 ligand, SDF-1 (400 ng/ml) was added to the lower chamber to attract CXCR4-positive breast cancer cells to migrate through the matrigel. The invasion of MDA-MB-231 cells transfected with siRNA1 decreased to 39±4% of the control cells, 51±8% with siRNA2, and only 16±6% with both siRNA1+2 (FIG. 3A).
# WZZL811S was tested in a matrigel invasion assay to determine whether it can inhibit CXCR4/SDF-1-mediated invasion.
# CXCR4 [9] = molecular target: T1, CXCR4; test: Immunofluorescence of biotin-labeled TN14003 on MDA-MB-231 cells preincubated with SDF-1; format: binding; settings: 400 ng/ml SDF-1, 10 min
# Protocol: Initially, experiments were performed to verify that TN14003 binds to the predicted SDF-1 binding sites on the CXCR4 receptor. In these studies, MDA-MB-231 cells were incubated in the absence (FIG. 1A, B) or presence (FIG. 1A, C) of 400 ng/ml of SDF-1α for 10 min, and then fixed in ice-cold acetone. Immunofluorescence of the biotin-labeled TN14003 was negative in both membrane and cytosol in the cells pretreated with SDF-1α for 10 min (FIG. 1A, C).
# MT-4 cells = settings: cited from earlier work
# HIV = settings: MT-4 cells; read-out: concentration required for 50% protection of HIV-induced cytopathogenicity; cited from earlier work
# T1 sequence (P61073 whole entry): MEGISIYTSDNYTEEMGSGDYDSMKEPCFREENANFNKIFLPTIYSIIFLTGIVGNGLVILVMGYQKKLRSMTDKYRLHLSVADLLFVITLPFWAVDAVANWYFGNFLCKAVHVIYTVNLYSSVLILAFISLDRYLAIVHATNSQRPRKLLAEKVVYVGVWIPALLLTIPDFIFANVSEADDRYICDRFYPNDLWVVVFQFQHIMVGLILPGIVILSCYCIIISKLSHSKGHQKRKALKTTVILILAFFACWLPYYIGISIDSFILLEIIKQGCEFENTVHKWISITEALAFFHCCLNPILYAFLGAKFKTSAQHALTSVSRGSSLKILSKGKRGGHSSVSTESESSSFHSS
Compound,concentration blocking Akt activation [2],SDF-1-stimulated phosphorylation of Akt [2],effect on CXCR4 protein levels (CXCR4 [4]),SHIV infection (p27 antigen levels) (SHIV),angiogenic effect of SDF-1 on capillary tube formation [6],CXCR4/SDF-1 mediated invasion of MDA-MB-231 (MDA-MB-231 cells [8]),further results
C1=CC(CN2CCCNCCNCCCNCC2)CC=C1CN1CCCNCCNCCCNCC1 (stereo not shown) [AMD3100],a few nano molar,blocked,did not affect,–,–,–,side effect in clinical study [1]: cardiac-related side effect; concentration needed to compete against biotin-labeled TN14003 (CXCR4 [3]; cells pre-incubated with different concentrations): 10 µM; concentration attenuating Erk1/2 phosphorylation [5]: 100 nM
c1cnc(NCc2ccc(CNc3ncccn3)cc2)nc1 [WZ40],–,–,–,inhibited SHIV infection at all concentrations tested,–,–,–
c1ccc(NCc2ccc(CNc3ccccn3)cc2)nc1 [WZZL811S],–,blocked,–,inhibited SHIV infection at all concentrations tested,inhibited,as potent as TN14003; also recorded: blocked,"efficacy relative to TN14003 (metastatic 686LN cells): 80%; IC50 (CXCR4 [3]; cells pre-incubated with various concentrations, read-out: IC50, detection of CXCR4 by biotin-labeled TN14003 on pre-incubated cells): < 1 nM; binding affinity to the ligand-binding site of CXCR4 on tumor cells (CXCR4 [3]; competition with biotin-labeled TN14003): nano-molar concentration; cell viability of MDA-MB-231 cells (MDA-MB-231 cells [7]): did not decrease cell viability"
TN14003,sub-nano molar concentration,blocked,did not affect,–,inhibited,blocked,binding of biotin-labeled TN14003 to CXCR4 after SDF-1 preincubation (CXCR4 [9]): negative; also recorded: blocked; metastasis of 686LN cells to organs (FDG-PET) (metastatic 686LN cells): failed to metastasize to any organs; concentration leading to 50% toxicity (MT-4 cells): 410 µM; EC50 (HIV): 0.6 nM; concentration attenuating Erk1/2 phosphorylation (in words) [5]: sub-nano molar concentration
